In publication PMC7824033, “Flavones, Flavonols, and Glycosylated Derivatives—Impact on Candida albicans Growth and Virulence, Expression of CDR1 and ERG11, Cytotoxicity” (Pharmaceuticals, 2020):
≈ marks a conversion by molar mass, not a printed value. Entries after “also recorded” stand apart in the source; their conditions may differ. Where two headings read alike, the source gives them in different places.

What was measured:
C. albicans = conditions: cited from earlier work
C. albicans 13/15 = experiment: Microdilution assay, MIC and MFC; assay type: cell-based; conditions: Candida albicans, C. albicans 13/15, mean ± SD of three replicates; for MFC: read-out: MFC; for MIC: read-out: MIC
From the text: (§1) C. albicans was isolated from oral cavities of patients at ENT Clinic, Clinical Hospital Centre Zvezdara, Belgrade, Serbia after obtaining informed written consent and identified by using CHROMagar plates (Biomerieux, Craponne, France). Strains were maintained on Sabouraud Dextrose Agar (Merck, Darmstadt, Germany) and are deposited at the Mycological Laboratory, Department of Plant Physiology, Institute for Biological Research “Siniša Stanković”, National Institute of Republic of Serbia, University of Belgrade. The collection of samples was approved by the Ethical Committee (Office for Human Research Protection, Zvezdara University Medical Center, Belgrade, Serbia, document issued 26 October 2016).
(§2) Microdilution assay with some modification was used for determination of minimum inhibitory (MIC) and minimum fungicidal concentrations (MFC). Yeast cultures were adjusted to 1.0 × 10^5 CFU/per well with sterile PBS (Phosphate buffered saline, pH 7.4). The 96-well microtiter plates with serially diluted flavonoids (concentration range 0.3–75 µg/mL) in liquid broth were incubated at 37 °C for 24 h. After incubation, MIC and MFC were determined. The lowest concentrations that were not inducing microscopically observed growth were considered as MIC. For microscopic determination of growth, we used inverted microscope Nikon Eclipse TS2 (Amsterdam, Netherland) and examined the fungal growth in the wells of 96-well microtiter plates compared to the control (untreated yeast cells). MFC values were determined as concentrations without visible growth after serial sub-cultivation of 10 µL of samples at 37 °C for 24 h. Ketoconazole and amphotericin B (SigmaAldrich, Darmstadt, Germany) were used as an antifungal control. The tested flavonoids were obtained from Extrasynthese, Rhone, France.

C. albicans 475/15 = experiment: Microdilution assay, MIC and MFC; assay type: cell-based; conditions: Candida albicans, C. albicans 475/15, mean ± SD of three replicates; for MFC: read-out: MFC; for MIC: read-out: MIC
From the text: as §1, §2

C. albicans 527/14 = experiment: Microdilution assay, MIC and MFC; assay type: cell-based; conditions: Candida albicans, C. albicans 527/14, mean ± SD of three replicates; for MFC: read-out: MFC; for MIC: read-out: MIC
From the text: as §1, §2

C. albicans 10/15 = experiment: Microdilution assay, MIC and MFC; assay type: cell-based; conditions: Candida albicans, C. albicans 10/15, mean ± SD of three replicates; for MFC: read-out: MFC; for MIC: read-out: MIC
From the text: as §1, §2

in vitro = conditions: pig
Method: Preparation of PLP2 cell line was performed with freshly harvested porcine liver supplied from a local slaughter house. Tissues from the liver were washed in Hank’s balanced salt solution comprising 100 U/mL penicillin and 100 μg/mL streptomycin and split into 1 × 1 mm^3 explants. Some of the prepared explants were set in 25 cm^2 tissue flasks in Dulbecco’s modified Eagle’s medium (DMEM) with 10% fetal bovine serum (FBS), 2 mM nonessential amino acids, 100 U/mL penicillin, and […] streptomycin, and incubation was conducted at 37 °C with 5% CO2 in a humidified atmosphere. The fresh medium was added every 2 days. Cultivation of the cells was further conducted with direct observation by the phase contrast microscope every 2–3 days. Before confluence was achieved, cells were subcultured and seeded in 96-well plates at a density of 1.0 × 10^4 cells per well and cultivated in DMEM supplemented with 10% FBS, 100 U/mL penicillin, and 100 μg/mL streptomycin. Previously described Sulforhodamine B assay was used for the determination of cytotoxicity. The obtained results were defined as GI50 values corresponding to the compound concentration that inhibits 50% of the net cell growth. Ellipticine was used as a positive control.

C. albicans biofilm = conditions: cited from earlier work
Candida albicans = experiment: Microdilution assay, MIC (strain not named); assay type: cell-based; conditions: C. albicans, this study, strain not given, read-out: minimum inhibitory concentration (MIC)
From the text: as §1, §2

[1] = test system: C. albicans 475/15 biofilm formation; experiment: Inhibition of biofilm formation (crystal violet); assay type: cell-based, Candida albicans
Method: Potential of selected compounds to interfere with C. albicans 475/15 biofilm formation was investigated as previously described. Briefly, C. albicans 475/15 was incubated with serial dilution of the compounds (MIC and subMICs) in YPD medium, in 96-well microtiter plates with adhesive bottom (Sarstedt, Nümbrecht, Germany), at 37 °C for 24 h. After incubation, wells were washed twice with sterile PBS and methanol was added into each well. After fixation, methanol was discarded, and the plate was air dried. Formed biofilms were stained with 0.1% crystal violet (Bio-Merieux, Craponne, France) for 30 min. The plate was gently washed under the tap of water and air dried. The stain bound to the remaining biofilms was dissolved with ethanol (96%, Zorka, Šabac, Serbia). Absorbance was read on a Multiskan™ FC Microplate Photometer, Thermo Scientific™. The percentage of inhibition of biofilm formation was calculated by the formula:[(A620control − A620sample)/A620control] × 100

[2] = test system: C. albicans 475/15 hyphal growth; experiment: Anti-hyphal forming activity; assay type: cell-based, Candida albicans; conditions: MIC, 4 h, YPD + 10% FBS
Method: C. albicans 475/15 cells were incubated with MIC of tested compounds in YPD + 10% FBS, at 37 °C, for 4 h. Cells were examined under microscope (Nikon Eclipse TS2, Amsterdam, Netherland) and number of cells, growing in the yeast or hyphal and germ tube formations, was determined. Assay was performed in triplicate and percentage of hyphae was determined.

SMILES	MFC (C. albicans 13/15) [µg/mL]	MIC (C. albicans 13/15) [µg/mL]	MFC (C. albicans 475/15) [µg/mL]	MIC (C. albicans 475/15) [µg/mL]	MFC (C. albicans 527/14) [µg/mL]	MIC (C. albicans 527/14) [µg/mL]	MFC (C. albicans 10/15) [µg/mL]	MIC (C. albicans 10/15) [µg/mL]	GI50 (in vitro) [µg/mL]	MIC (Candida albicans) [µg/mL]	reduction of hyphal growth (words) [2]	other results
O=c1c(O[C@@H]2O[C@H](CO)[C@@H](O)[C@H](O)[C@H]2O)c(-c2ccc(O)c(O)c2)oc2cc(O)cc(O)c12 [Isoquercitrin, isoquercitrin]	75 ± 2 (≈ 162 µM)	37.5 ± 2 (≈ 80.8 µM)	75 ± 2 (≈ 162 µM)	37.5 ± 1 (≈ 80.8 µM)	75 ± 2 (≈ 162 µM)	37.5 ± 1 (≈ 80.8 µM)	75 ± 2 (≈ 162 µM)	37.5 ± 2 (≈ 80.8 µM)	> 400	37.5 (≈ 80.8 µM)	efficient in reduction of hyphal growth	MIC (C. albicans; C. albicans ATCC 90028): 2.5 µg/mL (≈ 5.38 µM); concentration with antibiofilm potential (C. albicans biofilm; ref 19): 200 µg/mL; antibiofilm activity ([1]; MIC and subMICs): excellent activity; also recorded: notably lowered; inhibition of biofilm formation ([1]; compound applied at MIC): 76%; inhibition of biofilm formation ([1]; compound applied at MIC/2): > 60%; reduction of hyphal growth (words) ([2]; listed as isoquercitrin): reduced
O=c1c(O)c(-c2ccc(O)c(O)c2)oc2cc(O)cc(O)c12 [Quercetin, quercetin]	150 ± 20 (≈ 496 µM)	75 ± 10 (≈ 248 µM)	150 ± 10 (≈ 496 µM)	75 ± 2 (≈ 248 µM)	150 ± 10 (≈ 496 µM)	75 ± 2 (≈ 248 µM)	150 ± 20 (≈ 496 µM)	75 ± 3 (≈ 248 µM)	> 400	75 (≈ 248 µM)	only slight inhibition	MIC (C. albicans; C. albicans ATCC 10231, ref 16): 8 µg/mL (≈ 26.5 µM); MIC (C. albicans; C. albicans ATCC 10231, ref 17): 100 µg/mL (≈ 331 µM); MIC (C. albicans; clinical isolates and C. albicans 10231): > 83 µg/mL; MIC (C. albicans; clinical isolates and reference strains ATCC 10231 and SC5314): 128 to 512 µg/mL; activity against preformed 24-h-old biofilms (C. albicans biofilm; 625 µg/mL, C. albicans ATCC 90028): inactive; SMIC (sessile cells MIC) (C. albicans biofilm; C. albicans ATCC 10231, SC 5314 and clinical isolates): ≥ 1024 µg/mL; concentration that prevented biofilm establishment (C. albicans biofilm; C. albicans NBC099): 200 µg/mL; SMIC (sessile cells MIC) (C. albicans biofilm; oral and reference isolates SC5314 and 3153A): > 200 µg/mL
